The values below come from PubChem BioAssay (NCI).

Each structure is given as a SMILES string.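 1) Cells in 96-well plates. 2) Compound, 48 h, 5 concentrations. 3) Linear interpolation between surrounding doses. 4) Unreached endpoint = highest concentration. GI50 is the concentration that inhibits growth by half. TGI is the concentration that stops growth completely.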

For this test, the system named is MDA-MB-468 breast. Description: growth of human tumour cells (NCI), 48 h.
Turning to `CCn1nc(C2CCN(C(=O)CCO)CC2)nc1-c1cnc(N)c(-c2nnc(C(C)(C)C)o2)n1`, the GI50 is 1280 nM and the TGI was 16.1 µM.
Regarding `Cc1ccc(-c2cc(C(=O)Nc3ccc(S(=O)(=O)N4CCCCC4)cc3)[nH]n2)c(O)c1`, the GI50 was greater than 100000 nM and the TGI is greater than 100 µM.
As for `COc1ccc(Sc2[nH]c(C=O)c3ccccc23)cc1`, the GI50 is 1420 nM and the TGI turned out to be 24.3 µM.
On the same counts, the results for `Cc1[nH]c(C(=O)Nc2ccc(C(=O)NCCN)cc2OC(C)C)c(Cl)c1Cl` are 1910 nM and 3.67 µM.
With `COc1cc2c(cc1OC)[C@@H]1C(=O)c3ccc4c(c3O[C@@H]1CO2)C[C@H](C(C)C)O4`, the GI50 is less than 18.1 nM and the TGI turned out to be 0.867 µM.
Taken in the same sequence, the figures for `CCCCCCOC(=O)CC1=C(C)/C(=C/c2[nH]c(-c3ccc[nH]3)cc2OC)N=C1C` were 155 nM and 1.43 µM.
On to `Cc1[nH]c2ccccc2c1CO`, for which the GI50 was 19400 nM and the TGI amounted to 41.4 µM.
On the same counts, the results for `CCCCCCCCCCCCCCCCn1cc[n+](C)c1` are 92 nM and 0.431 µM.
Take `O=C(Nc1ccc(I)cc1F)c1cc(Br)ccc1O`: the GI50 was 401 nM and the TGI stood at 2.33 µM.
On the same counts, the results for `COc1ccc(C(=O)/C=C/c2cc(-c3ccc(OC)c(OC)c3)n[nH]2)cc1OC` are 1090 nM and 2.56 µM.
With `CCOC(=O)c1ccc(N2NC(=O)/C(=C/c3ccc([N+](=O)[O-])o3)C2=O)cc1`, the GI50 is 6690 nM and the TGI came out at 14.5 µM.
On the same counts, the results for `Clc1ccc(-c2cnc3c(-c4ccnc(N5CCNCC5)c4)cnn3c2)cc1` are 1540 nM and 2.99 µM.
Taken in the same sequence, the figures for `Cn1cnc([N+](=O)[O-])c1S(=O)(=O)Oc1ccc(Cl)cc1` were 1740 nM and 3.7 µM.
On the same counts, the results for `c1cc(OCCN2CCCC2)ccc1CNc1ccc2nc(CCC3CCCCC3)[nH]c2c1` are 1470 nM and 3.63 µM.
On to `COc1cc(OC)c(C(=O)/C=C/c2ccc(C#N)cc2)c(OC)c1`, for which the GI50 was 1170 nM and the TGI is 3.48 µM.
For `COC(=O)[C@H](Cc1cn(C)cn1)NC(=O)[C@H](CC(C)C)NC(=O)Nc1cc(C(F)(F)F)cc(C(F)(F)F)c1`, the GI50 was 3710 nM and the TGI was greater than 10 µM.
On the same counts, the results for `COc1ccc(Nc2ncc(I)c(NCCCNC(=O)C3CCC3)n2)cc1` are 11900 nM and 38.6 µM.
As to `O=C(COc1ccccc1)NNc1ccccc1`, the GI50 was greater than 300000 nM and the TGI was greater than 300 µM.
On the same counts, the results for `O=C1CN=C(c2ccc[nH]2)c2cc(Cl)ccc2N1` are greater than 100000 nM and greater than 100 µM.
On to `CCCCCN(CCCCC)CCC[C@@H](C)[C@H]1CC[C@H]2[C@@H]3[C@H](OCCCN)C[C@@H]4C[C@H](OCCCN)CC[C@]4(C)[C@H]3C[C@H](OCCCN)[C@]12C`, for which the GI50 was 13000 nM and the TGI turned out to be 29.8 µM.
Taken in the same sequence, the figures for `CCCN(CCC)c1ccc(/C=N/NC(=O)c2cccnc2)c(C)c1` were 2950 nM and 15.1 µM.
As to `CC(C)[C@@]12C[C@@H](OC(=O)C3CO3)[C@@](C)(O1)[C@@H]1CC[C@@H](C)[C@H]1[C@@H]2OC(=O)/C=C/c1ccccc1` (stereo not given in full), the GI50 is 16900 nM and the TGI was found to be 34.8 µM.
Taken in the same sequence, the figures for `Cc1nnn(C)c1-c1cnc2c3ccc(C(C)(C)O)cc3n([C@H](c3ccccc3)C3CCOCC3)c2c1` were less than 10 nM and 8.91 µM.
For `COc1cccc2c1C(=O)c1c(O)c3c(c(O)c1C2=O)C[C@](O)(C(=O)CO)C[C@H]3O[C@@H]1C[C@@H](NC(=O)CCCN(C)C2(c3ccc(F)cc3)CC3CCC2C3)[C@H](O)[C@@H](C)O1` (stereo not given in full), the GI50 was 879 nM and the TGI is 1.73 µM.
On the same counts, the results for `NC(=O)c1cn(C2CC(O)C(CO)O2)c2ncnc(N)c12` (stereo not given) are 486 nM and 3.77 µM.
On the same counts, the results for `COc1ccc(C)c2sc(N(Cc3cccnc3)C(=O)c3ccc(C#N)cc3)nc12` are 35000 nM and greater than 100 µM.
Taken in the same sequence, the figures for `Cc1ncc(C(=O)Nc2ccc(CN3CCN(C)CC3)c(C(F)(F)F)c2)cc1C#Cc1cnc(N)c2ccc(C#N)cc12` were 61.3 nM and 5.13 µM.
With `COc1cc(CSc2nc3ccc(Cl)cc3c(=O)n2Cc2ccccc2)cc(OC)c1OC`, the GI50 was 1070 nM and the TGI stood at 4.03 µM.
In the case of `COC(=O)CCc1n(Cc2ccc3ccccc3c2)c2ccccc2[n+]1Cc1ccc2ccccc2c1`, the GI50 was 196 nM and the TGI stood at 1.13 µM.
Taken in the same sequence, the figures for `CCCCCSc1ccc2nc(NC(=O)OCC)sc2c1` were 564 nM and 14.8 µM.
Turning to `COc1ccc(C2c3ccc4ccccc4c3Oc3ncn(CCCn4ccnc4)c(=N)c32)cc1OC` (stereo not given), the GI50 is 2120 nM and the TGI worked out at 5.45 µM.
On the same counts, the results for `CCc1cc2c(c(OCC(F)(F)F)c(C(=O)NC3CCN(C(=O)CO)CC3)n2C)c(=O)n1CC(=O)c1ccccc1` are 70600 nM and greater than 100 µM.
Taken in the same sequence, the figures for `CCOC(=O)c1c(NN2CCN(CC(F)(F)F)CC2)oc(/C=C2\C=Nc3ncccc32)c1O` were 3010 nM and 12 µM.
On the same counts, the results for `CCN1/C(=C/C(C)=C/c2sc3ccc4ccccc4c3[n+]2CC)Sc2ccc3ccccc3c21` are 15.6 nM and 0.156 µM.
For `Cc1cccc2c(=O)c3c(sc12)c(NCCCNCCO)nc1ccccc13`, the GI50 was 1470 nM and the TGI amounted to 3.04 µM.
Taken in the same sequence, the figures for `Clc1cc(Br)ccc1-c1ccc(CNCC2CCNCC2)o1` were 1710 nM and 3.41 µM.
On to `CC(C)(C)c1cc(C[P+](c2ccccc2)(c2ccccc2)c2ccccc2)cc(C(C)(C)C)c1O`, for which the GI50 was 216 nM and the TGI amounted to 0.771 µM.
Taken in the same sequence, the figures for `CCCCN(CCCC)P(=O)(Oc1ccccc1)Oc1ccccc1` were 3030 nM and 11.7 µM.
Taken in the same sequence, the figures for `CCOc1ccccc1/C=N\N=C(N/N=C/c1ccccc1OCC)N/N=C/c1ccccc1OCC` were 1540 nM and 7.16 µM.
For `COc1cccc(/C=N\NC(=O)c2ccncc2)c1O`, the GI50 was 2320 nM and the TGI amounted to 11.2 µM.
`OCc1ccc(-c2nc(-c3ccc4c(c3)OCO4)c(-c3ccccn3)[nH]2)cc1`: the GI50 is greater than 25000 nM and the TGI was greater than 25 µM.
On the same counts, the results for `CC(C)CCN(CCC(C)C)CC(=O)Nc1ccc(S(=O)(=O)c2ccc(NC(=O)CN(CCC(C)C)CCC(C)C)cc2)cc1` are 2390 nM and 7.52 µM.
Taken in the same sequence, the figures for `O=C1OC2(c3ccc(O)cc3Oc3cc(O)ccc32)c2cccc3cccc1c23` were 16100 nM and 34.3 µM.
On to `C#CCNC1CCC(c2csc(C#C)n2)=C1C` (stereo not given), for which the GI50 is 3170 nM and the TGI was 18.8 µM.
Taken in the same sequence, the figures for `COC(=O)c1c2c(c(C)[n+]([O-])c1C)C(=O)C(NCc1ccccc1)=CC2=O` were 1300 nM and 3.15 µM.
